Holding throughout (assay): Postemergence foliar-applied weed control, direct seeded rice, greenhouse (Example I)
The subject of assay [1] is BRAPP (Brachiaria platyphylla, broadleaf signalgrass). It counts as in vivo, Brachiaria platyphylla (Griseb.) Nash. To be noted: Urochloa platyphylla, post-emergence. In outline: (§1)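 Greenhouse-grown plants in loam/sandy loam–grit soil (14 h photoperiod, ~29/26 °C) were sprayed postemergence at the first to fourth true leaf stage. Compound A (acid equivalent basis) and ALS-inhibiting sulfonylureas (active ingredient basis) were applied alone and in combination in 1.25% (v/v) crop oil concentrate at 187 L/ha by track sprayer; controls received solvent blank.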

In assay [2] the test system is DIGSA (Digitaria sanguinalis, large crabgrass). It counts as in vivo, Digitaria sanguinalis (L.) Scop. To be noted: for Visual Weed Control (%) - 21 DAA DIGSA Obs: Table 27, foliar-applied. The procedure, abridged:
as §1

Assay [3] concerns CYPES (Cyperus esculentus, yellow nutsedge). In kind it is in vivo, Cyperus esculentus L. To be noted: 20 DAA. An excerpt:
(§2) Seeds or nutlets of the desired test plant species were planted in a soil matrix prepared by mixing a loam or sandy loam soil (e.g., 28.6 percent silt, 18.8 percent clay, and 52.6 percent sand, with a pH of about 5.8 and an organic matter content of about 1.8 percent) and calcareous grit in an 80 to 20 ratio. The soil matrix was contained in plastic pots with a volume of 1 quart and a surface area of 83.6 square centimeters (cm^2). When required to ensure good germination and healthy plants, a fungicide treatment and/or other chemical or physical treatment was applied. The plants were grown for 8-22 days in a greenhouse with an approximate 14 h photoperiod which was maintained at about 29° C. during the day and 26° C. during the night. Nutrients (Peters Excel® 15-5-15 5-Ca 2-Mg and iron chelate) were applied in the irrigation solution as needed and water was added on a regular basis. Supplemental lighting was provided with overhead metal halide 1000-Watt lamps as necessary. The plants were employed for testing when they reached the first through fourth true leaf stage.
(§3) Treatments consisted of the acid or esters of 4-amino-3-chloro-5-fluoro-6-(4-chloro-2-fluoro-3-methoxy-phenyl)pyridine-2-carboxylic acid (Compound A), each formulated as an SC, and various herbicidal components alone and in combination. Forms of compound A were applied on an acid equivalent basis.
(§4) Other herbicidal components were applied on an active ingredient basis and included acetolactate synthase (ALS)-inhibiting herbicides (sulfonylurea chemical class) azimsulfuron formulated as Gulliver®, bensulfuron-methyl formulated as Londax® 60DF, cyclosulfamuron (technical material), ethoxysulfuron formulated as Sunrice® 15 WDG, flazasulfuron formulated as Katana®, flucetosulfuron formulated as Sukedachi® 1KG G, foramsulfuron formulated as Option®, imazosulfuron formulated as Brazzos® WG, iodosulfuron-methyl-sodium formulated as Hussar®, metsulfuron-methyl formulated as Lorate®, nicosulfuron formulated as Accent®, orthosulfamuron formulated as Strada® WG, primisulfuron-methyl (technical material), propyrisulfuron formulated as Zeta One®, rimsulfuron formulated as Matrix® WG, sulfometuron-methyl formulated as Oust®, and trifloxysulfuron-sodium formulated as Monument® 75WG.
(§5) Treatment requirements were calculated based upon the rates being tested, the concentration of active ingredient or acid equivalent in the formulation, and a 12 mL application volume at a rate of 187 L/ha.
(§6) For treatments comprised of formulated compounds, measured amounts of compounds were placed individually in 25 mL glass vials and diluted in a volume of 1.25% (v/v) Agri-Dex® crop oil concentrated to obtain 12× stock solutions. […] Application solutions were prepared by adding an appropriate amount of each stock solution (e.g., 1 mL) and diluted to the appropriate final concentrations with the addition of 10 mL of an aqueous mixture of 1.25% (v/v) crop oil concentrate so that the final spray solutions contained 1.25+/−0.05% (v/v) Agrcrop oil concentrate.
(§7) For treatments comprised of formulated and technical compounds, weighed amounts of the technical materials were placed individually in 25 mL glass vials and dissolved in a volume of 97:3 v/v acetone/DMSO to obtain 12× stock solutions, and measured amounts of the formulated compounds were placed individually in 25 mL glass vials and diluted in a volume of 1.25% (v/v) crop oil concentrate to obtain 12× stock solutions. […] Application solutions were prepared by adding an appropriate amount of each stock solution (e.g., 1 mL) and diluted to the appropriate final concentrations with the addition of an appropriate amount of an aqueous mixture of 1.5% (v/v) crop oil concentrate so that the final spray solutions contained 1.25% (v/v) crop oil concentrate. […]

Assay [4] deals with ISCRU (Ischaemum rugosum, saramollagrass). It counts as in vivo, Ischaemum rugosum Salisb.
Excerpt: as §2, §3, §4, §5, §6, §7

Where “and” joins values, the source holds several entries; their conditions need not be identical. Identical values can stand only once. Like-named read-outs stand apart in the source and are kept apart here.

Turning to `COc1c(Cl)ccc(-c2nc(C(=O)O)c(Cl)c(N)c2F)c1F` [Compound A Acid, 4-amino-3-chloro-5-fluoro-6-(4-chloro-2-fluoro-3-methoxy-phenyl)pyridine-2-carboxylic acid], the pest or weed control at 4.38 g/ha amounted to 10% in assay [1] (480 h, 20 DAA, 4.38 gae/ha, read-out: Visual Weed Control (%) Obs); 40% in assay [1] (504 h, 21 DAA, 4.38 gae/ha, read-out: Visual Weed Control (%) Obs); 50% in assay [1] (504 h, 21 DAA, 4.38 gae/ha, second series, read-out: Visual Weed Control (%) Obs). The “Visual Weed Control (%) Obs” value in assay [2] (20 DAA, 5.3 gae/ha) is 10%; in assay [2] (24 DAA, 17.5 gae/ha), 25%; in assay [3] (4.38 gae/ha), 30%; in assay [3] (5.3 gae/ha), 0%; in assay [3] (8.75 gae/ha) it was 70%.
For the compound `COc1c(Cl)ccc(-c2nc(C(=O)OCc3ccccc3)c(Cl)c(N)c2F)c1F` [Compound A Benzyl Ester], the pest or weed control at 4.38 g/ha stood at 60% in assay [1] (480 h, read-out: Visual Weed Control (%) Obs, 20 DAA, 4.38 gae/ha); 50% in assay [1] (504 h, read-out: Visual Weed Control (%) Obs, 21 DAA, 4.38 gae/ha); 50% in assay [1] (504 h, read-out: Visual Weed Control (%) Obs, 21 DAA, 4.38 gae/ha, second series). For the same compound, the pest or weed control at 8.75 g/ha in assay [1] (480 h, read-out: Visual Weed Control (%) Obs, 20 DAA, 8.75 gae/ha) turned out to be 75%; in assay [1] (504 h, read-out: Visual Weed Control (%) Obs, 21 DAA, 8.75 gae/ha), 70%; in assay [1] (504 h, read-out: Visual Weed Control (%) Obs, 21 DAA, 8.75 gae/ha, second series) it was 80%. In addition, the pest or weed control at 17.5 g/ha was 85% in assay [1] (480 h, read-out: Visual Weed Control (%) Obs, 20 DAA, 17.5 gae/ha) and 80% in assay [1] (504 h, read-out: Visual Weed Control (%) Obs, 21 DAA, 17.5 gae/ha). Further, the pest or weed control at 8 g/ha in assay [1] (528 h, read-out: Visual Weed Control (%) Obs, 22 DAA, 8 gae/ha) amounted to 50%. For the same compound, in assay [1] (528 h, read-out: Visual Weed Control (%) Obs, 22 DAA, 16 gae/ha), the pest or weed control at 16 g/ha was found to be 90%. Besides, the pest or weed control at 32 g/ha in assay [1] (528 h, read-out: Visual Weed Control (%) Obs, 22 DAA, 32 gae/ha) was 85%. Also, the “Visual Weed Control (%) Obs” value in assay [4] (20 DAA, 6 gae/ha) is recorded as 30%; in assay [4] (20 DAA, 24 gae/ha), 35%; in assay [4] (21 DAA, 8 gae/ha), 20%; in assay [4] (21 DAA, 16 gae/ha), 0%; in assay [2] (20 DAA, 4.38 gae/ha), 20%; in assay [2] (20 DAA, 8.75 gae/ha) it was 15%. Further, the “Visual Weed Control (%) Obs” value in assay [2] (20 DAA, 17.5 gae/ha) is 20%; in assay [2] (22 DAA, 8 gae/ha), 20%; in assay [2] (22 DAA, 16 gae/ha) it was 20%; in assay [2] (22 DAA, 32 gae/ha), 35%; in assay [3] (4.38 gae/ha), 70% and 85%; in assay [3] (8.75 gae/ha) it was 80% and 90%. In assay [3] (17.5 gae/ha), the “Visual Weed Control (%) Obs” value is given as 90%. Also, the results for the “Visual Weed Control (%) - 21 DAA DIGSA Obs” value in assay [2] (8 gae/ha alone), in assay [2] (16 gae/ha alone) and in assay [2] (32 gae/ha alone) were 25%, 30% and 50%, respectively.
On to `COC(=O)c1ccccc1S(=O)(=O)NC(=O)Nc1nc(C)nc(OC)n1` [Metsulfuron-methyl, methyl 2-[[[[(4-methoxy-6-methyl-1,3,5-triazin-2-yl)amino]carbonyl]amino]sulfonyl]benzoate, reference compound], for which the pest or weed control at 7.5 g/ha in assay [1] (480 h, 20 DAA, 7.5 gai/ha, read-out: Visual Weed Control (%) Obs) came to 0%. In addition, the pest or weed control at 15 g/ha in assay [1] (480 h, 20 DAA, 15 gai/ha, read-out: Visual Weed Control (%) Obs) amounted to 20%.
For the compound `COCC(=O)OC(c1ncccc1S(=O)(=O)NC(=O)Nc1nc(OC)cc(OC)n1)C(C)F` (centres unmarked) [Flucetosulfuron, 1-[3-[[[[(4,6-dimethoxy-2-pyrimidinyl)amino]carbonyl]amino]sulfonyl]-2-pyridinyl]-2-fluoropropyl 2-methoxyacetate], the pest or weed control at 0.05 g/ha in assay [1] (504 h, 21 DAA, 0.05 gai/ha, read-out: Visual Weed Control (%) Obs) came to 0%. Further, the pest or weed control at 0.1 g/ha in assay [1] (504 h, 21 DAA, 0.1 gai/ha, read-out: Visual Weed Control (%) Obs) was found to be 0%. The pest or weed control at 0.2 g/ha in assay [1] (504 h, 21 DAA, 0.2 gai/ha, read-out: Visual Weed Control (%) Obs) came to 0%. Further, in assay [1] (528 h, 22 DAA, 1.7 gai/ha, read-out: Visual Weed Control (%) Obs), the pest or weed control at 1.7 g/ha stood at 0%.
As for `COC(=O)c1ccccc1CS(=O)(=O)NC(=O)Nc1nc(OC)cc(OC)n1` [Bensulfuron-methyl, methyl 2-[[[[[(4,6-dimethoxy-2-pyrimidinyl)amino]carbonyl]amino]sulfonyl]methyl]benzoate, reference compound], the pest or weed control at 4.38 g/ha in assay [1] (504 h, 21 DAA, 4.38 gai/ha, read-out: Visual Weed Control (%) Obs) stood at 0%. Besides, the pest or weed control at 8.75 g/ha in assay [1] (504 h, 21 DAA, 8.75 gai/ha, read-out: Visual Weed Control (%) Obs) stood at 0%. Moreover, the pest or weed control at 17.5 g/ha in assay [1] (504 h, 21 DAA, 17.5 gai/ha, read-out: Visual Weed Control (%) Obs) amounted to 0%; in assay [1] (504 h, 21 DAA, 17.5 gai/ha, second series, read-out: Visual Weed Control (%) Obs), 0%. Besides, in assay [1] (504 h, 21 DAA, 35 gai/ha, second series, read-out: Visual Weed Control (%) Obs), the pest or weed control at 35 g/ha amounted to 0%. Besides, the “Visual Weed Control (%) Obs” value in assay [4] (20 DAA, 70 gai/ha) is 30%.

Values taken from US8871681B2, “Herbicidal compositions comprising 4-amino-3-chloro-5-fluoro-6-(4-chloro-2-fluoro-3-methoxyphenyl) pyridine-2-carboxylic acid or a derivative thereof and certain sulfonylureas” (Dow AgroSciences LLC, priority 2012, dated 2014).
